Some test systems named below: K562; HL-60; PC-3; NCI-H226; SR; UACC-62; RXF 393; MDA-MB-231; SNB-19; Malme-3M; RPMI-8226; UO-31; 786-0; Hs-578T; DU-145; SF-295; A549; NCI/ADR-RES; MCF7.
What all share (experiment): NCI anticancer screen, dose series, 48 h

The structures appear in SMILES notation.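 1) Cells in 96-well plates. 2) Compound, 48 h, 5 concentrations. 3) Linear interpolation between surrounding doses. 4) Unreached endpoint = highest concentration. At the GI50, growth is halved.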 The source made the active and inactive calls. No stated cut-off is given here; in the data, active = GI50 up to about 1.1 µM and inactive = higher.

As to `N#Cc1nc(-c2cccnc2)oc1N`, the GI50 in the test with K562, in the test on HL-60, in the test with PC-3, in the test with NCI-H226, with SR and in the test on UACC-62 was > 100 µM (inactive) in each case. Moreover, the GI50 was > 100 µM (inactive) in the test with RXF 393; > 100 µM (inactive) in the test with MDA-MB-231; > 100 µM (inactive) in the test on SNB-19; > 100 µM (inactive) in the test with Malme-3M; > 100 µM (inactive) in the test on RPMI-8226; 4.83 µM (inactive) in the test on UO-31. Also, the GI50 in the test with 786-0, in the test on Hs-578T and in the test on DU-145 was > 100 µM (inactive) each time.

On to `COC(C/C(=C/CO[Si](C(C)C)(C(C)C)C(C)C)C(=O)Nc1ccccc1I)OC`, for which the GI50 is 14.9 µM (inactive) with K562; 8.63 µM (inactive) in the test with SF-295; 18.9 µM (inactive) in the test with PC-3; 28.5 µM (inactive) in the test on NCI-H226; 7.5 µM (inactive) in the test with SR; 53.5 µM (inactive) in the test on UACC-62. For the same molecule, the GI50 in the test with RXF 393 is 2.39 µM (inactive); with MDA-MB-231 it was 12.5 µM (inactive); in the test on A549 it was 22.9 µM (inactive); in the test with SNB-19 it was 18.4 µM (inactive); in the test on Malme-3M, 0.0676 µM (active); in the test on RPMI-8226, 6.15 µM (inactive). Besides, the GI50 in the test on UO-31 was 36.6 µM (inactive); in the test with 786-0, 24.1 µM (inactive); in the test with NCI/ADR-RES it was 22.9 µM (inactive); with Hs-578T, 29.6 µM (inactive); in the test on DU-145, 13 µM (inactive).

For `Cc1ccc(S(=O)(=O)N(CC(O)COc2ccccc2)c2ccc(F)cc2F)cc1` (stereo not drawn), the GI50 in the test with K562 was 34.8 µM (inactive); with SF-295, 17.2 µM (inactive); with HL-60, 15.7 µM (inactive); in the test on PC-3 it was 12.8 µM (inactive); in the test with NCI-H226 it was 18.8 µM (inactive); with SR, 22.5 µM (inactive). Further, the GI50 was 13.5 µM (inactive) in the test on UACC-62; 11.9 µM (inactive) in the test on RXF 393; 17.4 µM (inactive) with MDA-MB-231; 12.9 µM (inactive) with A549; 18.1 µM (inactive) with SNB-19; 16 µM (inactive) in the test on Malme-3M. The GI50 in the test with RPMI-8226 is 13.5 µM (inactive); with UO-31, 13.9 µM (inactive); in the test with 786-0 it was 16.8 µM (inactive); in the test with NCI/ADR-RES, 15.9 µM (inactive); in the test on Hs-578T, 17.3 µM (inactive); in the test on DU-145, 16.6 µM (inactive).

`COc1ccc(/C=C2/C(C)=NN(c3cccc(Cl)c3)/C2=N/c2nc3ccccc3s2)cc1`: the GI50 in the test with K562 was 26.7 µM (inactive); with SF-295, 22.5 µM (inactive); with MCF7, 28.8 µM (inactive); with HL-60, 20.7 µM (inactive); in the test on PC-3, 19 µM (inactive); in the test with NCI-H226 it was 22.3 µM (inactive). The GI50 with SR was 23.9 µM (inactive); with RXF 393 it was 12 µM (inactive); in the test on MDA-MB-231, 24.7 µM (inactive); in the test on RPMI-8226, 22.7 µM (inactive); in the test on UO-31 it was 19.3 µM (inactive); in the test with 786-0 it was 20.3 µM (inactive). Further, the GI50 with NCI/ADR-RES is 22.9 µM (inactive); in the test with Hs-578T, 24.7 µM (inactive); with DU-145, 19.6 µM (inactive).

As to `COC1=C(C)C(=O)C2C(C1=O)C(c1ccc(OC)c(OC)c1)[C@H]2C` (stereo partly drawn), the GI50 in the test with K562, with SF-295, in the test with HL-60, in the test with NCI-H226, with SR and with UACC-62 was > 100 µM (inactive) in each case. For the same molecule, the GI50 in the test with RXF 393 was > 100 µM (inactive); with A549, > 100 µM (inactive); with SNB-19 it was > 100 µM (inactive); with Malme-3M it was > 100 µM (inactive); in the test with RPMI-8226 it was > 100 µM (inactive); with UO-31, 61.1 µM (inactive). Besides, the GI50 with 786-0 is > 100 µM (inactive).

These data come from ChEMBL document CHEMBL1201862, “PubChem BioAssay data set” (2004).
